We go through 2 molecules from PMC5571211 (Scientific Reports, 2017).

The target in experiment [1] is T1, human recombinant 5-LOX (Homo sapiens, UniProt P09917).
T1 construct: made in house; host or cells: E. coli BL21
T1 sequence (P09917 1-674): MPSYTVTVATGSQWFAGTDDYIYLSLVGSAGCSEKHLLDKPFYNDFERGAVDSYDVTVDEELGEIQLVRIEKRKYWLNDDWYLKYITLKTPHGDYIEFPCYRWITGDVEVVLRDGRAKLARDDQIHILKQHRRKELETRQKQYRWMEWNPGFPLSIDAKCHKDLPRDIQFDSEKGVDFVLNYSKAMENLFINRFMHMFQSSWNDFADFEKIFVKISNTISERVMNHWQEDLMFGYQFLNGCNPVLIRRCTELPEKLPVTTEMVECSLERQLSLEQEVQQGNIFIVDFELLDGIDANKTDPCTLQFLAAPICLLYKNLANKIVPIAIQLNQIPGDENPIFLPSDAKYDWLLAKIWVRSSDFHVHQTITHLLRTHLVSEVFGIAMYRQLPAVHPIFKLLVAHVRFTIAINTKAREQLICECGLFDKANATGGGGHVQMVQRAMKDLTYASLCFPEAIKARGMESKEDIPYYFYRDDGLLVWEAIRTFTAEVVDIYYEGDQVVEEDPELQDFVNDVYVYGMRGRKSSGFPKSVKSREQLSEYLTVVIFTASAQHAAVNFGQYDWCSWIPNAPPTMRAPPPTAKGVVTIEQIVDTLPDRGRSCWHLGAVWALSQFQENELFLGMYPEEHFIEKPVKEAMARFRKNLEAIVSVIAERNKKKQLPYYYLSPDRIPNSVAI
As to the kind of experiment: Activity assay of isolated human recombinant 5-LOX (cell-free). The format is biochemical. As to conditions: cell-free assays, not further specified.
Description: To determine 5-LOX product formation, aliquots (0.5 µg purified 5-LOX in 1 mL PBS plus 1 mM EDTA) were pre-incubated with the test compounds or vehicle (0.1% DMSO) on ice for 15 min and then stimulated with 20 µM AA and CaCl2 (2 mM) for 10 min at 37 °C. The reaction was stopped with one volume of ice-cold methanol and 5-LOX products were analyzed by RP-HPLC as previously described[58]. Briefly, 530 µl acidified PBS and 200 ng of internal PGB1 standard were added and solid phase extraction using C18 RP-columns (100 mg, UCT, Bristol, PA, USA) was performed. After elution with methanol, samples were analyzed by RP-HPLC using a C-18 Radial-PAK column (Waters, Eschborn, Germany). Unless stated otherwise, 5-LOX products include all-trans-isomers of LTB4 and 5-HpETE as well as its corresponding alcohol 5-HETE.

Experiment [2] deals with T2, mPGES-1 (Homo sapiens, UniProt O14684).
T2 construct: A549 cells were cultivated in DMEM medium containing FCS (2%) and IL-1β (2 ng/mL) for 72 h; endogenous in cells; host or cells: A549 cells, IL-1β-induced, microsomal fraction
T2 sequence (O14684 1-152): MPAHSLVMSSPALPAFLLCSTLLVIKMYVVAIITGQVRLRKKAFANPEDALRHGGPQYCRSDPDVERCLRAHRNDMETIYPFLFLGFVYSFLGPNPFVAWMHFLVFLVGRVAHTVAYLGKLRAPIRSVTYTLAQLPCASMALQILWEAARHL
The following applies: cited from earlier work.

Experiment [3] has as its target T3, human recombinant LTA4-H (Homo sapiens, UniProt P09960).
T3 construct: gift of Dr. E. Proschak, Goethe University, Frankfurt
T3 sequence (P09960 2-611 limits assumed): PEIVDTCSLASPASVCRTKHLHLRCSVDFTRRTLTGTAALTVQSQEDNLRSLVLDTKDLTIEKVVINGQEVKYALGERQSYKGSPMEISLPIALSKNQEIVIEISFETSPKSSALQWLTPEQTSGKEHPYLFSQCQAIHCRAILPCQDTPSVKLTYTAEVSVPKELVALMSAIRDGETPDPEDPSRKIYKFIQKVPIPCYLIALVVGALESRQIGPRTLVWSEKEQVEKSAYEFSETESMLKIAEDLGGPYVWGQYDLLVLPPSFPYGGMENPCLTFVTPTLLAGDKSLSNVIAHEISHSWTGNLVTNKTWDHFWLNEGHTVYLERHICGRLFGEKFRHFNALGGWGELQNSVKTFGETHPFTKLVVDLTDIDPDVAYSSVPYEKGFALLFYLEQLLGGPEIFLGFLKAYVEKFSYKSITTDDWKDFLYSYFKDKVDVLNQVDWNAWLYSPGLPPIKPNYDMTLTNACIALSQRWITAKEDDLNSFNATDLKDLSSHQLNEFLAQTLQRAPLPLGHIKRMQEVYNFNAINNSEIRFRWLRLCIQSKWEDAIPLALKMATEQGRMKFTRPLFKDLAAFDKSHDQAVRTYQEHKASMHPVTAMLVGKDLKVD
As to the kind of experiment: LTA4 hydrolase activity, co-incubation of isolated 5-LOX and LTA4-H. The format is biochemical. As to conditions: diflapolin up to 10 µM, AUDA 10 µM, SC57461A 0.3 µM, zileuton 3 µM. As for the experimental part:
In order to determine the activity of LTA4-H, aliquots of human recombinant 5-LOX (0.5 µg) and 10 µg of human recombinant LTA4-H (kindly provided by Dr. E. Proschak, Goethe University, Frankfurt, Germany) were suspended in 1 mL PBS containing 1 mM EDTA and pre-incubated with test compounds or vehicle (0.1% DMSO) for 10 min on ice. The specific LTA4-H inhibitor SC57461A (0.3 µM) was used as reference drug. Subsequently, incubations were stimulated with 20 µM AA and 2 mM CaCl2 for additional 10 min at 37 °C. The reaction was stopped by 1 volume ice-cold methanol, 530 µL acidified PBS and 200 ng of PGB1 as internal standard were added and subjected to solid phase extraction. All LTB4 isomers were analyzed by HPLC as described above.

The test system of experiment [4] is AA release (cPLA2) in neutrophils. As to the kind of experiment: [3H]-labeled arachidonic acid release in neutrophils. The following applies: [3H]AA-pre-labelled neutrophils; diflapolin 1 µM, RSC-3388 10 µM. The format is cell-based, human. As for the experimental part:
Freshly isolated human neutrophils were resuspended in RPMI 1640 medium to a final cell density of 10^7 cells/mL and incubated with 0.5 µCi/mL of [^3H]-labeled arachidonic acid ([^3H]-AA), corresponding to a concentration of 5 nM of the fatty acid, for 2 hrs (37 °C, 5% CO2). Cells were washed twice to remove unincorporated [^3H]-AA and resuspended in PBS containing glucose (0.1%), fatty acid-free BSA (2 mg/mL) and CaCl2 (1 mM). […] The reaction was stopped on ice and cells were centrifuged at 1,200 rpm (10 min, 4 °C). The collected supernatants were combined with 2 mL of liquid scintillation counting solution (Rotiszint eco plus, Carl Roth, Karlsruhe, Germany) and assayed for radioactivity by scintillation counting (Micro Beta Trilux, Perkin Elmer, Waltham, MA).

Broadly, the IC50 is the concentration that inhibits the measured activity by half. `CC(C)c1ccc2c(c1)c(SC(C)(C)C)c(CC(C)(C)C(=O)O)n2Cc1ccc(Cl)cc1` [MK886, 3-[1-(4-chlorobenzyl)-3-t-butyl-thio-5-isopropylindol-2-yl]-2,2 - dimethylpropanoic acid]: the IC50 in experiment [1] was more than 10 µM. Further, the “inhibition of MAPEG family member mPGES-1” value in experiment [2] is “inhibit”.

Take `Cc1cc(OCc2nc3ccccc3s2)ccc1NC(=O)Nc1ccc(Cl)c(Cl)c1` [diflapolin, N-[4-(benzothiazol-2-ylmethoxy)-2-methylphenyl]-N′-(3,4-dichlorophenyl)urea]: in experiment [3], the “effect on LTA4-H activity (LTB4 formation)” value was “failed to inhibit”. Besides, the “release of AA upon A23187-stimulation” value in experiment [4] is reported as “did not inhibit”.
